# Values quoted from earlier work, collected in patent US20240280563A1, “SYSTEMS AND METHODS FOR ION CHANNEL KINETICS ANALYSIS IN CLUSTERS OF ION CHANNELS” (Ohio State Innovation Foundation, priority 2023, published 2024).
# Tested on: NaVs
# Details: disruption of cooperativity with difopein; this and previous studies (Clatot et al. 2017; Zheng and Deschênes 2023)
substance,measurement,value
difopein,effect on whole cell sodium current density,does not change significantly
